# Results published in patent US11820787B2, “Benfotiamine derivatives in the treatment of alzheimer's disease” (SHANGHAI RAISING PHARMACEUTICAL CO., LTD., priority 2019, dated 2023).
# Key:
# Aβ42 = Aβ42 content in culture supernatant of HEK293APP/sw overexpression cells (ELISA, adjusted to total protein); format: cell-based; conditions: for Aβ42 content: secreted by APP/293 (HEK293APP/sw) cells, 400 μM, treated for 24 h, blank control 11.08
# Description: (§1) (1) BCA protein concentration assay kit is purchased from Beyotime, Aβ40 and AB42 test kits are purchased from Wako Company. Except the fetal bovine serum (FBS) is purchased from Shanghai Pulong Biotechnology Research and Development Co. Ltd., the other related reagents are purchased from Gibico Company.
# (§2) (2) HEK293APP/sw overexpression cell culture: cells are cultured in 48 microwell plate with DMEM culture solution (including 10% FBS, 100 μg/mL G418 (Geneticin) and penicillin and streptomycin), and a 4 mM stock in DMEM is diluted with DMEM to 400 μM and added to cell culture medium by 500 μL/well at 70% cell density and treated for 24 h.
# (§3) (3) After the supernatant of culture solution is added to the BCA reagent at room temperature for 30 minutes, the absorption value of each well is measured at the OD 570 nm by the microplate reader and the total protein concentration is calculated according to the protein standard curve. Meanwhile, the concentration of Aβ40 and Aβ42 in the supernatant of culture solution is measured. Briefly, the supernatant is added to the 96 microwell plate coated by primary antibodies and incubated at 4° C. for overnight. Then the solution in the 96 microwell plate is removed and washed, and HRP (horseradish oxide enzyme) marked antibody is added to the solution and incubated at 4° C. for 2 hours. The antibody is removed and the plate is washed. After TMB substrate is added to each well at room temperature for 30 minutes, and the stop buffer is added to each well. The absorption value of each well is measured at the OD 450 nm by the microplate reader and the concentrations of Aβ40 and Aβ42 are calculated according to the standard curves of Aβ40 and Aβ42 respectively, and the final concentration is obtained by adjusting the concentrations of Aβ40 and Aβ42 according to the total protein concentration.
# Aβ40 = Aβ40 content in culture supernatant of HEK293APP/sw overexpression cells (ELISA, adjusted to total protein); format: cell-based; conditions: for Aβ40 content: secreted by APP/293 (HEK293APP/sw) cells, 400 μM, treated for 24 h, blank control 127.81
# Description: as §1, §2, §3
Compound,"effect on the generation of Aβ42 peptides compared with blank control (Aβ42; APP/293 cells, in words)",Aβ42 content (Aβ42) [pmol/L],"effect on the generation of Aβ40 peptides compared with blank control (Aβ40; APP/293 cells, in words)",Aβ40 content (Aβ40) [pmol/L]
"C/C(=C(\CCOP(=O)(O)O)SC(=O)c1ccccc1)N(C=O)Cc1cnc(C)nc1N [Comparative Example 2, S-[2-[[(4-amino-2-methyl-5-pyrimidinyl)methyl]formylamino]-1-[2-(phosphonooxy)ethyl]-1-propenyl]ester, reference compound]",good effect on reducing the generation,5.04,good effect on reducing the generation,53.77
"COc1cccc(C(=O)S/C(CCOP(=O)(O)O)=C(/C)N(C=O)Cc2cnc(C)nc2N)c1 [Example 1, (Z)-S-(2-(N-((4-amino-2-methylpyrimidin-5-yl)methyl)formamido)-5-(phosphonooxy)pent-2-en-3-yl)3-methoxybenzothioate]",,12.14,,135.09
"CCOc1ccc(C(=O)S/C(CCOP(=O)(O)O)=C(/C)N(C=O)Cc2cnc(C)nc2N)cc1 [Example 2, (Z)-S-(2-(N-((4-amino-2-methylpyrimidin-5-yl)methyl)formamido)-5-(phosphonooxy)pent-2-en-3-yl)4-ethoxybenzothioate]",,7.19,,93.07
"C/C(=C(\CCOP(=O)(O)O)SC(=O)c1ccc(O)cc1)N(C=O)Cc1cnc(C)nc1N [Example 3, (Z)-S-(2-(N-((4-amino-2-methylpyrimidin-5-yl)methyl)formamido)-5-(phosphonooxy)pent-2-en-3-yl)4-hydroxybenzothioate]",,10.79,,121.48
"C/C(=C(\CCOP(=O)(O)O)SC(=O)c1c(F)cccc1F)N(C=O)Cc1cnc(C)nc1N [Example 4, (Z)-S-(2-(N-((4-amino-2-methylpyrimidin-5-yl)methyl)formamido)-5-(phosphonooxy)pent-2-en-3-yl)2,6-difluorobenzothioate]",,8.86,,133.25
"C/C(=C(\CCOP(=O)(O)O)SC(=O)c1cccc(Br)c1)N(C=O)Cc1cnc(C)nc1N [Example 5, (Z)-S-(2-(N-((4-amino-2-methylpyrimidin-5-yl)methyl)formamido)-5-(phosphonooxy)pent-2-en-3-yl)3-bromobenzothioate]",,6.77,,25.65
"C/C(=C(\CCOP(=O)(O)O)SC(=O)c1cccc([N+](=O)[O-])c1)N(C=O)Cc1cnc(C)nc1N [Example 6, (Z)-S-(2-(N-((4-amino-2-methylpyrimidin-5-yl)methyl)formamido)-5-(phosphonooxy)pent-2-en-3-yl)3-nitrobenzothioate]",,3.31,,81.05
"C/C(=C(\CCOP(=O)(O)O)SC(=O)c1ccc(F)cc1)N(C=O)Cc1cnc(C)nc1N [Example 7, (Z)-S-(2-(N-((4-amino-2-methylpyrimidin-5-yl)methyl)formamido)-5-(phosphonooxy)pent-2-en-3-yl)4-fluorobenzothioate]",,13.08,,152.06
"C/C(=C(\CCOP(=O)(O)O)SC(=O)c1cccc(F)c1)N(C=O)Cc1cnc(C)nc1N [Example 8, (Z)-S-(2-(N-((4-amino-2-methylpyrimidin-5-yl)methyl)formamido)-5-(phosphonooxy)pent-2-en-3-yl)3-fluorobenzothioate]",,8.35,,87.33
"C/C(=C(\CCOP(=O)(O)O)SC(=O)c1ccccc1F)N(C=O)Cc1cnc(C)nc1N [Example 9, (Z)-S-(2-(N-((4-amino-2-methylpyrimidin-5-yl)methyl)formamido)-5-(phosphonooxy)pent-2-en-3-yl)2-fluorobenzothioate]",,,,15.00
"C/C(=C(\CCOP(=O)(O)O)SC(=O)c1ccccc1C)N(C=O)Cc1cnc(C)nc1N [Example 10, (Z)-S-(2-(N-((4-amino-2-methylpyrimidin-5-yl)methyl)formamido)-5-(phosphonooxy)pent-2-en-3-yl)2-methylbenzothioate]",,9.78,,112.32
"C/C(=C(\CCOP(=O)(O)O)SC(=O)c1ccc([N+](=O)[O-])cc1)N(C=O)Cc1cnc(C)nc1N [Example 11, (Z)-S-(2-(N-((4-amino-2-methylpyrimidin-5-yl)methyl)formamido)-5-(phosphonooxy)pent-2-en-3-yl)4-nitrobenzothioate]",,5.21,,60.98
"COc1ccc(C(=O)S/C(CCOP(=O)(O)O)=C(/C)N(C=O)Cc2cnc(C)nc2N)cc1 [Example 12, (Z)-S-(2-(N-((4-amino-2-methylpyrimidin-5-yl)methyl)formamido)-5-(phosphonooxy)pent-2-en-3-yl)4-methoxybenzothioate]",,3.92,,41.60
"C/C(=C(\CCOP(=O)(O)O)SC(=O)c1cccc(Cl)c1)N(C=O)Cc1cnc(C)nc1N [Example 13, (Z)-S-(2-(N-((4-amino-2-methylpyrimidin-5-yl)methyl)formamido)-5-(phosphonooxy)pent-2-en-3-yl)3-chlorobenzothioate]",,6.37,,69.35
"C/C(=C(\CCOP(=O)(O)O)SC(=O)c1cccc(C)c1)N(C=O)Cc1cnc(C)nc1N [Example 14, (Z)-S-(2-(N-((4-amino-2-methylpyrimidin-5-yl)methyl)formamido)-5-(phosphonooxy)pent-2-en-3-yl)3-methylbenzothioate]",,6.41,,97.97
"C/C(=C(\CCOP(=O)(O)O)SC(=O)c1ccc(Cl)cc1)N(C=O)Cc1cnc(C)nc1N [Example 15, (Z)-S-(2-(N-((4-amino-2-methylpyrimidin-5-yl)methyl)formamido)-5-(phosphonooxy)pent-2-en-3-yl)4-chlorobenzothioate]",,7.16,,60.27
CCOc1ccccc1C(=O)S/C(CCOP(=O)(O)O)=C(/C)N(C=O)Cc1cnc(C)nc1N [Example 16],,5.93,,42.76
"C/C(=C(\CCOP(=O)(O)O)SC(=O)c1ccc(Br)cc1)N(C=O)Cc1cnc(C)nc1N [Example 17, (Z)-S-(2-(N-((4-amino-2-methylpyrimidin-5-yl)methyl)formamido)-5-(phosphonooxy)pent-2-en-3-yl)4-bromobenzothioate]",,8.89,,112.53
"C=Cc1cccc(C(=O)S/C(CCOP(=O)(O)O)=C(/C)N(C=O)Cc2cnc(C)nc2N)c1 [Example 20, (Z)-S-(2-(N-((4-amino-2-methylpyrimidin-5-yl)methyl)formamido)-5-(phosphonooxy)pent-2-en-3-yl)3-vinylbenzothioate]",,10.33,,117.16
"C=Cc1ccc(C(=O)S/C(CCOP(=O)(O)O)=C(/C)N(C=O)Cc2cnc(C)nc2N)cc1 [Example 21, (Z)-S-(2-(N-((4-amino-2-methylpyrimidin-5-yl)methyl)formamido)-5-(phosphonooxy)pent-2-en-3-yl)4-vinylbenzothioate]",,11.24,,127.41
"C/C(=C(\CCOP(=O)(O)O)SC(=O)c1ccccc1[N+](=O)[O-])N(C=O)Cc1cnc(C)nc1N [Example 22, (Z)-S-(2-(N-((4-amino-2-methylpyrimidin-5-yl)methyl)formamido)-5-(phosphonooxy)pent-2-en-3-yl)2-nitrobenzothioate]",,11.31,,127.81
"C/C(=C(\CCOP(=O)(O)O)SC(=O)c1c(C)cccc1C)N(C=O)Cc1cnc(C)nc1N [Example 23, (Z)-S-(2-(N-((4-amino-2-methylpyrimidin-5-yl)methyl)formamido)-5-(phosphonooxy)pent-2-en-3-yl)2,6-dimethylbenzothioate]",,12.64,,143.18
(Z)-S-(2-(N-((4-amino-2-methylpyrimidin-5-yl)methyl)formamido)-5-(phosphonooxy)pent-2-en-3-yl)2-bromobenzothioate [Example 18],,2.60,,21.19
(Z)-S-(2-(N-((4-amino-2-methylpyrimidin-5-yl)methyl)formamido)-5-(phosphonooxy)pent-2-en-3-yl)2-iodobenzothioate [Example 19],,5.50,,62.74
